# Results taken from patent US11000501B2, “Composition for preventing or treating neurological and mental disorders, containing syringaresinol” (SEOUL NATIONAL UNIVERSITY R&DB FOUNDATION, priority 2016, dated 2021).
# Experiments:
# Type in all cases: cell-based, mouse
# ERK = test: Western blot of ERK activity (p-ERK/ERK) in hippocampal slices; details: 100, 300 and 500 μM, 10 minutes treatment
# Method: After removing the CA3 region from the hippocampal slice surgically, the slices were recovered in the 36° C. and normal ACSF for 4 hours. Each sample was treated with each drug for 10 minutes, and then frozen using liquefied nitrogen. Western blot analysis of drug-induced changes in ERK activity in the hippocampal slices was performed in a manner as previously described (Song et al., 2017). The slices were homogenized using a probe sonicator in a cold lysis buffer about at a temperature of ice. The lysis buffer contained 50 mM HEPES, 100 mM NaCl, 5 mM EGTA, 5 mM EDTA, 1% Triton X-100, a phosphatase inhibitor mixer (GenDEPOT, TX, USA) and a protease inhibitor mixer (Sigma-Aldrich, MO, USA). The total protein concentration of the homogenate was determined by Bradford protein assay (Bio-Rad, CA, USA). Samples containing 10 to 12 μg of protein were separated using SDS-PAGE gels and transferred to the nitrocellulose membrane. The membrane was sequentially reacted with a primary antibody (p-ERK and ERK; Cell Signaling Technologies, MA, USA) and a secondary antibody (Jackson ImmunoResearch, USA) having horse radish peroxidase (HRP) coupled thereto. HRP signals were detected on an enhanced chemiluminescence (ECL) substrate (GE Healthcare, UK) and then quantified with MetaMorph software (Molecular Devices, CA, USA). […]
# [1] = system: CA1 neurons (inhibitory synaptic transmission); test: Evoked IPSC (eIPSC) recording in CA1 neurons; details: 100 μM
# Text: A stimulating electrode was placed on a radiating layer or a pyramidal cell layer near the target cell. […] […] During eEPSC or eIPSC recording, series resistance and seal resistance were continuously observed using short hyperpolarization pulses (−5 mV, 50 ms). When the resistance was changed by more than 20% during recording, the data was discarded.
# SYR […] inhibitory synaptic transmission in CA1 neurons. […] There was no difference between the first eIPSC (t=−0.47, p>0.05) and the second eIPSC (t=−0.33, p>0.05) as measured before and after the application of SYR respectively.
# [2] = system: CA1 neurons (inhibitory synaptic transmission); test: Miniature IPSC (mIPSC) recording in CA1 neurons
# Method: (§1) A miniature EPSC (mEPSC) was measured at −70 mV with a pipette solution. In this connection, the pipette solution contained 110 mM K-gluconate, 20 mM KCl, 8 mM NaCl, 10 mM HEPES, 0.5 mM QX-314-C1, 4 mM Mg-ATP, 0.3 mM Na-GTP and 0.5 mM EGTA. The solution had pH 7.25 and 290 mOsm/kg. Voluntary action potentials and IPSCs were blocked by TTX (1 μM) and picrotoxin (50 μM), respectively. For mIPSC recording, the K-gluconate in the pipette solution was replaced with the KCl having the same number of moles as the K-gluconate.
# The effect of SYR on the miniature IPSC (mIPSC) was checked.
# [3] = system: AMPAR-EPSC in CA1 neurons; test: AMPAR-mediated EPSC whole-cell patch clamp in CA1 neurons
# Method: To measure evoked excitatory post-synaptic current (eEPSC), the synapse potential was recorded using a patch pipette (3 to 4Mohm) via the membrane voltage clamp technique. The patch pipette contained a solution containing 100 mM CsMeSO4, 10 mM TEA-Cl, 20 mM CsCl, 8 mM NaCl, 10 mM HEPES, 0.5 mM QX-314-Cl, 4 mM Mg-ATP, 0.3 mM Na-GTP and 10 mM EGTA and having pH 7.25 and 290 mOsm/kg. EPSC was measured at a frequency of 0.05 Hz. The synaptic current was induced using a glass pipette (0.3 to 0.5 Mohm). GABAA receptor (GABAAR) antagonist picrotoxin (50 μM) was added to ACSF.
# Thus, it was necessary to check the effect of SYR on desensitization of AMPAR in CA1 neurons. The whole-cell patch clamp technique was used in the presence of NMDAR blocker AP-5 and GABAA receptor blocker picrotoxin (PTX, 50 μM).
# To confirm this assumption, we examined the effect of SYR on AMPAR-EPSC by injecting, as the actin-stabilizer, jasplakinolide (2 μM) into the patch pipette solution (FIG. 3H to FIG. 3J).
# Furthermore, we checked whether post-synaptic loading of SYR regulates AMPAR-EPSC. We measured AMPAR-EPSC for 25 minutes immediately after cell membrane-punching using a K+-based pipette solution. […] If the post-synaptic loading of SYR affects AMPAR-EPSC, gradual diffusion of SYR from the pipette solution should inhibit AMPAR-EPSC.
# Previous studies have shown that the secretion probability is regulated by the size of the readily releasable pool (RRP) of hippocampal neurons. Therefore, RRP was measured before and after treatment with SYR (100 μM). A high-frequency train (20 Hz) composed of more than 60 stimuli was prepared. 80 stimuli at 20 Hz was applied to completely remove RRP from the SC-CA1 synapse. RRP size was measured by cumulative amplitude analysis (Stevens and Williams, 2007; Wesseling and Lo, 2002).
# CA1 neurons = test: Miniature EPSC (mEPSC) recording in CA1 neurons
# Method: as §1
# Next, the effect of SYR on miniature EPSC (mEPSC) in CA1 neurons was examined.
# [4] = system: Ca^2+ channel in CA1 neurons; test: Ca2+ channel current (Ba2+ current) recording in CA1 neurons; details: 100 μM; depolarization −90 mV to −10 mV, 50 ms
# hippocampal CA1 region = test: Picrotoxin-induced epilepsy activity in intact hippocampal slices; details: picrotoxin 50 μM
# Method: Selective inhibition of excitatory synaptic transmission rather than inhibitory synapse transmission means that SYR may change the balance between synapse excitation and inhibition in neurons. We checked whether this synapse regulation might inhibit epilepsy pathogenic activity caused by excessive excitement of the neural network. To model an epilepsy pathogenic neuron network in experimental conditions (in vitro), the hippocampal slice was prepared while the CA3 region was left. During recording, ACSF containing picrotoxin (50 μM) was perfused in intact hippocampal slices. […] Continuous picrotoxin perfusion (>20 min) discharged an epilepsy pathogenic excitation wave. This wave was characterized by a three to seven population spikes (PS) waveform of a decreasing amplitude (FIG. 7C).
compound,measurement,setting,value
"COc1cc(C2OCC3C(c4cc(OC)c(O)c(OC)c4)OCC23)cc(OC)c1O (stereo not drawn) [SYR, syringaresinol]",ERK activity,ERK,did not affect ERK activity
same,ratio of IPSC amplitude induced by paired-pulse stimulation (PPR),[1]; 100 ms interval,did not change
same,eIPSC amplitude (first and second),[1]; in presence of NBQX and AP-5,had no effect on eIPSC
same,amplitude of mIPSC,[2],did not affect
same,frequency of mIPSC,[2],did not affect
same,AMPAR-EPSC,"[3]; 100 μM, AP-5 and picrotoxin present",inhibited
same,excitatory post-synaptic current (EPSC) amplitude,"[3]; fixed potential of −70 mV, AP-5 and picrotoxin 50 μM present",significantly reduced
same,time constant of EPSC reduction (decay),[3]; −70 mV,did not affect
same,mEPSC amplitude,CA1 neurons,did not change
same,mEPSC frequency,CA1 neurons,did not change
same,Ba^2+ current mediated by the Ca^2+ channel,[4],rapidly reduced
same,amplitude of first epilepsy pathological excitation wave (first PS),hippocampal CA1 region,decreased
same,area of the epilepsy pathological fEPSP (population spike),hippocampal CA1 region,decreased
same,epilepsy pathological excitation wave,hippocampal CA1 region,significantly inhibited
same,slope of fEPSP in epilepsy-induced hippocampal slice,hippocampal CA1 region,rapidly reduced
